From patent US12139520B2 (priority 2020, dated 2024)
Numbered stars: 1 amine (or outer) side, 2 acyl side, 3 side chain; on linkers, the order of the positions; unused ones are H or OH. Bridge positions count the residues as written; N and C are the ends. Square brackets hold non-standard residues; d marks the D form. Peptide text beside a SMILES is read from it. * marks the point of attachment. C20 diacid = O=C(O)CCCCCCCCCCCCCCCCCCC(=O)*; γGlu = O=C(O)[C@H](CCC(=O)[*:2])N[*:1]; Hyp = O=C(O)[C@@H]1C[C@@H](O)CN1

target: T1, hAMY3 receptor (Homo sapiens, UniProt O60896+P30988); experiment: cAMP assay for in vitro receptor activation, hAMY3-R; format: cell-based; details: cAMP assay, hAMY3 receptor; read-out: hAMY3R EC50
T1 sequence (P30988 25-474): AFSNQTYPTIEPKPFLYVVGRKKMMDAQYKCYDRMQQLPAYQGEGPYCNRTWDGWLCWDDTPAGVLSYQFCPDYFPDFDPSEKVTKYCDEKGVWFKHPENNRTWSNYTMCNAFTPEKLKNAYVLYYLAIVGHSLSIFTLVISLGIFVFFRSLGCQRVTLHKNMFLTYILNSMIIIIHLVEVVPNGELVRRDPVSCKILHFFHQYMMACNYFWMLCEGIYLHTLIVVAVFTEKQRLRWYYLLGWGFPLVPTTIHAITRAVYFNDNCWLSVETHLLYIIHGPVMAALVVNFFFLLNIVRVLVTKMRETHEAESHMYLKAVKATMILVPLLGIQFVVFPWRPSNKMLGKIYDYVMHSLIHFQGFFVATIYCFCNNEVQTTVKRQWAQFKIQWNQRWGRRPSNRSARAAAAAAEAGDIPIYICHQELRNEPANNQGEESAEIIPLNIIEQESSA
T1 sequence (O60896 24-148 partner): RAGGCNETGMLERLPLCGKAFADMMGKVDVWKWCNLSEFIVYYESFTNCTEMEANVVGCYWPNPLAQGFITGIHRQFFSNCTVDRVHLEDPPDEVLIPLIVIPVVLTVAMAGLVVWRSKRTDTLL
How it was run: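 Monoclonal cell line stably overexpressing human AMY3 receptor, 2000 cells/well in DPBS with 0.05% casein and 0.5 mM IBMX. Stimulated 30 min at room temperature with graded compound doses, human amylin as positive control. cAMP accumulation read by TR-FRET after one hour.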

Row | SMILES | EC50 [nM]
1 | CC[C@H](C)[C@H](NC(=O)[C@H](CCCCN)NC(=O)[C@H](CO)NC(=O)[C@H](CCCNC(=N)N)NC(=O)[C@@H]1CCCN1C(=O)[C@H](C)NC(=O)[C@@H](NC(=O)[C@H](CC(N)=O)NC(=O)[C@H](CC(=O)O)NC(=O)[C@H](CCCCN)NC(=O)[C@H](CC(=O)O)NC(=O)[C@H](CCCCN)NC(=O)[C@H](CC(=O)O)NC(=O)[C@@H](NC(=O)[C@H](Cc1ccccc1)NC(=O)[C@H](CCC(N)=O)NC(=O)[C@H](Cc1ccc(O)cc1)NC(=O)[C@@H](NC(=O)[C@H](CCC(N)=O)NC(=O)[C@H](Cc1c[nH]cn1)NC(=O)[C@H](C)NC(=O)[C@H](CC(C)C)NC(=O)[C@H](CCCNC(=N)N)NC(=O)[C@H](CCC(N)=O)NC(=O)[C@@H](NC(=O)[C@@H](NC(=O)[C@@H]1CSSC[C@H](NC(=O)CN)C(=O)N[C@@H](CCCNC(=N)N)C(=O)N[C@@H]([C@@H](C)O)C(=O)NCC(=O)N[C@@H]([C@@H](C)O)C(=O)N1)[C@@H](C)O)C(C)C)[C@@H](C)CC)[C@@H](C)O)C(C)C)C(=O)NCC(=O)N1CCC[C@H]1C(=O)N[C@@H](CC(N)=O)C(=O)NCC(=O)N1C[C@H](O)C[C@H]1C(N)=O [compound 157] (H-GCRTGTCTVQRLAHQIYQFTDKDKDNVAPRSKIGPNG[Hyp]-NH2; disulfide 2-7; N-terminus assumed) | 0.047
2 | CC[C@H](C)[C@H](NC(=O)[C@H](CCC(N)=O)NC(=O)[C@H](Cc1c[nH]cn1)NC(=O)[C@H](C)NC(=O)[C@H](CC(C)C)NC(=O)[C@H](CCCNC(=N)N)NC(=O)[C@H](CCC(N)=O)NC(=O)[C@@H](NC(=O)[C@@H](NC(=O)[C@@H]1CSSC[C@H](NC(=O)CN)C(=O)N[C@@H](CCCNC(=N)N)C(=O)N[C@@H](Cc2ccccc2)C(=O)NCC(=O)N[C@@H]([C@@H](C)O)C(=O)N1)[C@@H](C)O)C(C)C)C(=O)N[C@@H](Cc1ccc(O)cc1)C(=O)N[C@@H](CCC(N)=O)C(=O)N[C@@H](Cc1ccccc1)C(=O)N[C@H](C(=O)N[C@@H](CC(=O)O)C(=O)N[C@@H](CCCCN)C(=O)N[C@@H](CC(=O)O)C(=O)N[C@@H](CCCCN)C(=O)N[C@@H](CC(=O)O)C(=O)N[C@@H](CC(N)=O)C(=O)N[C@H](C(=O)N[C@@H](C)C(=O)N1CCC[C@H]1C(=O)N[C@@H](CCCNC(=N)N)C(=O)N[C@@H](CO)C(=O)N[C@@H](CCCCN)C(=O)N[C@H](C(=O)N[C@@H](CO)C(=O)N1CCC[C@H]1C(=O)N[C@@H](CCC(N)=O)C(=O)NCC(=O)N1C[C@H](O)C[C@H]1C(N)=O)[C@@H](C)CC)C(C)C)[C@@H](C)O [compound 169] (H-GCRFGTCTVQRLAHQIYQFTDKDKDNVAPRSKISPQG[Hyp]-NH2; disulfide 2-7; N-terminus assumed) | 0.063
3 | CC[C@H](C)[C@H](NC(=O)[C@H](CCC(N)=O)NC(=O)[C@H](Cc1c[nH]cn1)NC(=O)[C@H](C)NC(=O)[C@H](CC(C)C)NC(=O)[C@H](CCCNC(=N)N)NC(=O)[C@H](CCC(N)=O)NC(=O)[C@@H](NC(=O)[C@@H](NC(=O)[C@@H]1CSSC[C@H](NC(=O)CN)C(=O)N[C@@H](CCCNC(=N)N)C(=O)N[C@@H](Cc2ccccc2)C(=O)NCC(=O)N[C@@H]([C@@H](C)O)C(=O)N1)[C@@H](C)O)C(C)C)C(=O)N[C@@H](Cc1ccc(O)cc1)C(=O)N[C@@H](CCC(N)=O)C(=O)N[C@@H](Cc1ccccc1)C(=O)N[C@H](C(=O)N[C@@H](CC(=O)O)C(=O)N[C@@H](CCCCN)C(=O)N[C@@H](CC(=O)O)C(=O)N[C@@H](CCCCN)C(=O)N[C@@H](CC(=O)O)C(=O)N[C@@H](CC(N)=O)C(=O)N[C@H](C(=O)N[C@@H](C)C(=O)N1CCC[C@H]1C(=O)N[C@@H](CCCNC(=N)N)C(=O)N[C@@H](CO)C(=O)N[C@@H](CCCCN)C(=O)N[C@H](C(=O)N[C@@H](CO)C(=O)N1CCC[C@H]1C(=O)N[C@@H](CCC(N)=O)C(=O)NCC(=O)N[C@@H](Cc1ccc(O)cc1)C(N)=O)C(C)C)C(C)C)[C@@H](C)O [compound 174] (H-GCRFGTCTVQRLAHQIYQFTDKDKDNVAPRSKVSPQGY-NH2; disulfide 2-7; N-terminus assumed) | 0.071
4 | CC[C@H](C)[C@H](NC(=O)[C@H](CCCCN)NC(=O)[C@H](CO)NC(=O)[C@H](CCCNC(=N)N)NC(=O)[C@@H]1CCCN1C(=O)[C@H](C)NC(=O)[C@@H](NC(=O)[C@H](CC(N)=O)NC(=O)[C@H](CC(=O)O)NC(=O)[C@H](CCCCN)NC(=O)[C@H](CC(=O)O)NC(=O)[C@H](CCCCN)NC(=O)[C@H](CC(=O)O)NC(=O)[C@@H](NC(=O)[C@H](Cc1ccccc1)NC(=O)[C@H](CCC(N)=O)NC(=O)[C@H](Cc1ccc(O)cc1)NC(=O)[C@@H](NC(=O)[C@H](CCC(N)=O)NC(=O)[C@H](Cc1c[nH]cn1)NC(=O)[C@H](C)NC(=O)[C@H](CC(C)C)NC(=O)[C@H](CCCNC(=N)N)NC(=O)[C@H](CCC(N)=O)NC(=O)[C@@H](NC(=O)[C@@H](NC(=O)[C@@H]1CSSC[C@H](NC(=O)CN)C(=O)N[C@@H](CCCNC(=N)N)C(=O)N[C@@H]([C@@H](C)O)C(=O)NCC(=O)N[C@@H]([C@@H](C)O)C(=O)N1)[C@@H](C)O)C(C)C)[C@@H](C)CC)[C@@H](C)O)C(C)C)C(=O)NCC(=O)N1CCC[C@H]1C(=O)N[C@@H](CCC(N)=O)C(=O)NCC(=O)N1C[C@H](O)C[C@H]1C(N)=O [compound 179] (H-GCRTGTCTVQRLAHQIYQFTDKDKDNVAPRSKIGPQG[Hyp]-NH2; disulfide 2-7) | 0.082
5 | CC(C)C[C@H](NC(=O)[C@H](CCCNC(=N)N)NC(=O)[C@H](CCC(N)=O)NC(=O)[C@@H](NC(=O)[C@@H](NC(=O)[C@@H]1CSSC[C@H](NC(=O)CNC(=O)CC[C@H](NC(=O)CCCCCCCCCCCCCCCCCCC(=O)O)C(=O)O)C(=O)N[C@@H](CCCNC(=N)N)C(=O)N[C@@H](Cc2ccccc2)C(=O)NCC(=O)N[C@@H]([C@@H](C)O)C(=O)N1)[C@@H](C)O)C(C)C)C(=O)N[C@@H](C)C(=O)N[C@@H](Cc1c[nH]cn1)C(=O)N[C@@H](Cc1ccccc1)C(=O)N[C@@H](CC(C)C)C(=O)N[C@@H](Cc1ccc(O)cc1)C(=O)N[C@@H](CCC(N)=O)C(=O)N[C@@H](Cc1ccccc1)C(=O)N[C@H](C(=O)N[C@@H](CC(=O)O)C(=O)N[C@@H](CCCCN)C(=O)N[C@@H](CC(=O)O)C(=O)N[C@@H](CCCCN)C(=O)N[C@@H](CC(=O)O)C(=O)N[C@@H](CC(N)=O)C(=O)N[C@H](C(=O)N[C@@H](C)C(=O)N1CCC[C@H]1C(=O)N[C@@H](CCCNC(=N)N)C(=O)N[C@H](C(=O)N[C@@H](CC(N)=O)C(=O)N[C@H](C(=O)NCC(=O)N1CCC[C@H]1C(=O)N[C@@H](CCC(N)=O)C(=O)NCC(=O)N[C@@H](Cc1ccc(O)cc1)C(N)=O)C(C)C)[C@@H](C)O)C(C)C)[C@@H](C)O [compound 200] ({C20 diacid-γGlu}-GCRFGTCTVQRLAHFLYQFTDKDKDNVAPRTNVGPQGY-NH2; disulfide 2-7) | 0.126
